Legend:
[1] = target: T1, BRD4 (Homo sapiens, UniProt O60885); experiment: BRD4 degradation in HeLa cells by Western blot; assay type: cell-based
T1 construct: HeLa cells, which express BRD4 at high levels, were selected as a model cell line; host or cells: HeLa
Method: 80-O14B LNP was formulated by directly dissolving the lipidoid into 25 mM sodium acetate solution (pH=5.5). 80-O14B LNP was added into the solution with the final concentration of 5 μg/mL and the solution was incubated at room temperature for another 15 min before administration. Pre-fused ARV-825 or SARD279 were prepared through the similar route.
Generally, Western blots was carried out on the Invitrogen Novex SureLock Mini-Cell system. Supplies for the system were bought from Invitrogen (Carlsbad, CA, USA) […] sample was loaded onto 4-12% bis-tris protein gel and the gel was run with a stable voltage of 120 V for 80 min. Then the gel was cut according to the protein ladder and transferred to PVDF membrane with a stable current of 250 mA for 3 h. The membrane was blocked by 5% skimmed milk for 1 h at room temperature and then incubated with primary antibody overnight. After 3 cycles of washing by TBST (tris-buffered saline, 0.1% tween 20), the membrane was incubated with secondary antibody for another 1 h and then washed by TBST for 3 times. The final membrane was then imaged using enhanced chemiluminescence (ECL) substrate.
1×10^6 HeLa cells were cultured in 6 well plate for 24 h before administration. […] After 24 h incubation, the proteins were isolated from HeLa cells using the radio-immunoprecipitation assay (RIPA) lysis buffer and quantitated by bicinchoninic acid assay (BCA assay). Then the proteins were diluted to the sample concentration using NuPAGE LDS sample buffer (Invitrogen, Carlsbad, CA, USA) and denatured at 95° C. for 5 min. The study of targeted protein degradation by ARV-825 and SARD279 were carried out using similar protocols.

[2] = target: T2, androgen receptor (AR) (Homo sapiens, UniProt P10275, T878A); experiment: AR degradation in LNCaP cells by Western blot; assay type: cell-based; settings: 0.125 to 0.5 μM
T2 construct: The study of targeted protein degradation by ARV-825 and SARD279 were carried out using similar protocols; host or cells: LNCaP
T2 sequence (P10275 1-920 T878A): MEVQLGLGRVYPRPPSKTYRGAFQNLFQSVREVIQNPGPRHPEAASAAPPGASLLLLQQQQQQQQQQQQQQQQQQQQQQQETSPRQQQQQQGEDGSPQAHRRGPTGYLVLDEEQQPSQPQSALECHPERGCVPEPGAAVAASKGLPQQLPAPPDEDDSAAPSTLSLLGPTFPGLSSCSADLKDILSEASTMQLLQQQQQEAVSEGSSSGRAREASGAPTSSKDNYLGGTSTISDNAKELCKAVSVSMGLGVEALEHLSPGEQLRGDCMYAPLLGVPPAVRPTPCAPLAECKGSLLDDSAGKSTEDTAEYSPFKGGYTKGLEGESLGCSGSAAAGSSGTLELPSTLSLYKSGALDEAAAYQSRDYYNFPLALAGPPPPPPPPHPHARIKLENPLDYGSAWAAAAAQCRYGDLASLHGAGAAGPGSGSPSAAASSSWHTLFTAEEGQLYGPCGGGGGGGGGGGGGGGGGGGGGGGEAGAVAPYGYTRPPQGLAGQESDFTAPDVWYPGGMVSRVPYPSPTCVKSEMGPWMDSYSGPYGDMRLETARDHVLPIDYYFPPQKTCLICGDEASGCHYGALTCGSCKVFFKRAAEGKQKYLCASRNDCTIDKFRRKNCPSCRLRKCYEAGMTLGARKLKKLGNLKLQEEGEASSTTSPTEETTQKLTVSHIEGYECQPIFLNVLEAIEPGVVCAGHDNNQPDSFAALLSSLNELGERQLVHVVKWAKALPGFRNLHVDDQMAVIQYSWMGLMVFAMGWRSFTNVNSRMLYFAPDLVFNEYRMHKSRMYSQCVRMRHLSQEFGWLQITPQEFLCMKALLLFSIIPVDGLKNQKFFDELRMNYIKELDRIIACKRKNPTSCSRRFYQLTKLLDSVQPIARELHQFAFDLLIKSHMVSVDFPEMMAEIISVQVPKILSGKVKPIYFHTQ

Compound | BRD4 levels remained ([1]; 24 h, 25 and 50 nM) | BRD4 degradation, time-dependent ([1]; after 8 h) | BRD4 degradation, time-dependent ([1]; after 24 h) | BRD4 degradation, time-dependent ([1]; first 6 h) | AR degradation [2]
Cc1ncsc1-c1ccc([C@H](C)NC(=O)[C@@H]2C[C@@H](O)CN2C(=O)[C@@H](NC(=O)COCCCOCCNC(=O)C[C@@H]2N=C(c3ccc(Cl)cc3)c3c(sc(C)c3C)-n3c(C)nnc32)C(C)(C)C)cc1 [ARV-771] | more than 80% | Small amounts of degradation | total degradation | no significant degradation | 
CC1(C)C(=O)N(c2ccc(C#N)c(C(F)(F)F)c2)C(=S)N1CCCC(=O)NCCOCCOC(=O)CC12CC3CC(CC(C3)C1)C2 [SARD279] |  |  |  |  | no AR degradation

Reference: patent US20230414723A1, “ENHANCED HYT-INDUCED PROTEIN DEGRADATION USING LIPID NANOPARTICLE DELIVERY” (Trustees of Tufts College, priority 2020, published 2023)
